From PMC4728508 (Marine Drugs, 2016) come the findings set out here.

The test system of one experiment is Kunming mice. Particulars: mouse, in vivo, sc.
In the next experiment the target is rat α3β2 nAChR (Rattus norvegicus, UniProt P04757+P12390). Type of experiment: cell-based.
For a further experiment, the target named is human α3β2 nAChR (Homo sapiens, UniProt P17787+P32297). Type of experiment: cell-based.
human α3β2 nAChR, sequence (P32297 32-505 limits assumed): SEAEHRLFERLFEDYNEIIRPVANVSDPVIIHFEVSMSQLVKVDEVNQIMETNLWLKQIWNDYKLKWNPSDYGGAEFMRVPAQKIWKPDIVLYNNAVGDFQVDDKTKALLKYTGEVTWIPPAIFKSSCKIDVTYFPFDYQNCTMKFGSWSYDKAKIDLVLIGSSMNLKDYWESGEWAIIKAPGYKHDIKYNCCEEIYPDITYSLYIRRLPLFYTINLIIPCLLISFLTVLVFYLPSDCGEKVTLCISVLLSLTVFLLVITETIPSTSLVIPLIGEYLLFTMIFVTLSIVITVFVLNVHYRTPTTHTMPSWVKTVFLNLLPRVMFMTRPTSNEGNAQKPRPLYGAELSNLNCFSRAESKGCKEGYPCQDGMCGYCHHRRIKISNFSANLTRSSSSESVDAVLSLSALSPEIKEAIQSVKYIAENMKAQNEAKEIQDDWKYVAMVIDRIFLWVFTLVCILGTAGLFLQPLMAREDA
human α3β2 nAChR, sequence (P17787 26-502 limits assumed): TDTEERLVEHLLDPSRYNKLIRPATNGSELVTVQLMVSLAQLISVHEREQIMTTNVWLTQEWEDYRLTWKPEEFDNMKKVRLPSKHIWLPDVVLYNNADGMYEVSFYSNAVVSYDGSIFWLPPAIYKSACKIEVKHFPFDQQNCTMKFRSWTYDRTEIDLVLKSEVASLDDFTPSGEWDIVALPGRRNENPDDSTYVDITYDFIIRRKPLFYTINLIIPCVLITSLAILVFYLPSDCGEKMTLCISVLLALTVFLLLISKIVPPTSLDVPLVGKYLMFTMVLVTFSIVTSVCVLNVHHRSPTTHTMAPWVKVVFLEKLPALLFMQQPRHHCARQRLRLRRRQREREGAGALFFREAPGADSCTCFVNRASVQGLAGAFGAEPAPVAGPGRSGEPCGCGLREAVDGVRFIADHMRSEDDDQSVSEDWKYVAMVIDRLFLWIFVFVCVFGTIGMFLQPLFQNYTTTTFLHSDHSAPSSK

rat α3β2 nAChR, sequence (P04757 26-499 limits assumed): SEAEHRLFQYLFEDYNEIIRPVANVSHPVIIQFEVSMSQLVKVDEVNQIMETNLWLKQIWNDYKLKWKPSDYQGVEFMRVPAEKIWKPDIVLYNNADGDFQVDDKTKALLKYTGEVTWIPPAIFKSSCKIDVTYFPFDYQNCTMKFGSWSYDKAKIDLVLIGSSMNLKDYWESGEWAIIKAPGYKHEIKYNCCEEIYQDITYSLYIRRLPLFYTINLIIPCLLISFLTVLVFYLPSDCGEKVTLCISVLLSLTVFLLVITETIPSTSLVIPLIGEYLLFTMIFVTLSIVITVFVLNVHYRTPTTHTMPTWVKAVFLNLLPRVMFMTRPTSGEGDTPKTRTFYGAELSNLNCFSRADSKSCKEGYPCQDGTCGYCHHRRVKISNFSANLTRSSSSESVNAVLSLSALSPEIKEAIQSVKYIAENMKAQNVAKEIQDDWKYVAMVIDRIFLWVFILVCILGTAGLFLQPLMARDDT
rat α3β2 nAChR, sequence (P12390 25-500 limits assumed): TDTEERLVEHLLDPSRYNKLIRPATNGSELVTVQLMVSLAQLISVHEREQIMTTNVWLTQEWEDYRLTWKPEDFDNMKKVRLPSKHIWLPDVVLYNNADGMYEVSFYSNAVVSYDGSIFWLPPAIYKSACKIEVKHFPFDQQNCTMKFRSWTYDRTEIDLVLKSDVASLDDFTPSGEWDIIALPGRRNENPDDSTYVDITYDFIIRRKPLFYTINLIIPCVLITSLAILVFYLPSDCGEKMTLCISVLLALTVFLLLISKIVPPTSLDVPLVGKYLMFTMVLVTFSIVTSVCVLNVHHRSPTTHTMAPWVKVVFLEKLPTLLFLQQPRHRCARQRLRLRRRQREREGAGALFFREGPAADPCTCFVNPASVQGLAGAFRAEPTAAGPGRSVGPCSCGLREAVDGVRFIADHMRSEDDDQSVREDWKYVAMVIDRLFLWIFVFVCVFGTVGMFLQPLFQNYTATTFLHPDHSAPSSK

As for `CN1CC[C@]23c4c5ccc(O)c4O[C@H]2[C@@H](O)C=C[C@H]3[C@H]1C5` [Morphine], the “latency to thermal stimulus” value in the experiment with Kunming mice was “highest latency”.

With `CC[C@H](C)[C@@H]1NC(=O)[C@H](CCC(=O)O)NC(=O)[C@@H]2CCCN2C(=O)[C@H](Cc2c[nH]cn2)NC(=O)[C@H](CC(=O)O)NC(=O)[C@H](C(C)C)NC(=O)[C@H](CC(N)=O)NC(=O)[C@@H]2CSSC[C@H](NC(=O)CNC(=O)[C@@H](N)CCSC)C(=O)N[C@@H](CSSC[C@@H](C(=O)O)NC1=O)C(=O)N[C@@H](CO)C(=O)N[C@@H](Cc1c[nH]cn1)C(=O)N1CCC[C@H]1C(=O)N[C@@H](C)C(=O)N2` [rLvIA], the “loss of potency versus native LvIA” value on rat α3β2 nAChR was 18.5 fold; at human α3β2 nAChR, 2.7 fold.
